Laboratory results as given in patent US20090181976A1, “Use of Compounds Binding to the Sigma Receptor for the Treatment of Metabolic Syndrome” (priority 2006, published 2009).

Tests used:
[1] = test system: obese (diet-induced obesity) wild type mice; assay: Triglyceride levels in blood of high fat diet-fed obese mice after 9 days of treatment; type: in vivo; conditions: male C57BL/6J mice on high fat diet, 50 mg/Kg s.c., once a day, blood on day 10, mean±standard deviation, p<0.05 vs vehicle control (91.75±32.88)
Procedure: Pharmacologic approach: Treatment of obese (diet-induced obesity) wild type mice with a sigma-1 receptor antagonist results in a significant reduction in the concentration of triglycerides in blood.
Wild type male mice from the C57BL/6J strain were used in these experiments. Mice of 8-10 weeks of age were fed for two months with high fat diet (49% fat content; Harlan Ibérica, TD97366). Treatment was administered subcutaneously, once a day, for 9 days. Treated animals received daily (for 9 days) a single dose of 50 mg/kg of BD-1063 (a sigma-1 receptor antagonist). Control animals received daily vehicle (saline). During the period of treatment, mice had free access to water and food (high fat diet). At the end of the treatment, on day 10, blood samples were obtained through intracardiac puncture and triglyceride levels were measured using the Cholestech LDX blood analyzer. Student t test was applied to determine statistical significance.
Values are means±standard deviation. Units are expressed as mg/100 mL.

sigma-1 (σ1) receptors = sigma-1 (σ1) receptors (Homo sapiens, UniProt Q99720); conditions: statement on literature knowledge; cited from earlier work
Sequence of sigma-1 (σ1) receptors (Q99720 whole entry): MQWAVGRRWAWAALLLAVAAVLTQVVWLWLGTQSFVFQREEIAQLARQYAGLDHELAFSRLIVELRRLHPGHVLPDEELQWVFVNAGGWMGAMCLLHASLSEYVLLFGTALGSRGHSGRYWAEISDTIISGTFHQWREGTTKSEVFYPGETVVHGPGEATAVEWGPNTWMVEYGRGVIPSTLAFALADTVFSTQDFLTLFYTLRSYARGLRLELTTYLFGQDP

Compound | Triglyceride Levels [1] | affinity of sigma-1 receptors (sigma-1 (σ1) receptors)
CN1CCN(CCc2ccc(Cl)c(Cl)c2)CC1 [BD-1063] | 56.8±9.41 mg/100 mL | 
CC(C)=CCN1CCC2(C)c3cc(O)ccc3CC1C2C (centres unmarked) [pentazocine] |  | very high affinity
